The first experiment addresses T1, rat CB-1 receptor (Rattus norvegicus, UniProt P20272).
T1 construct: The tissue obtained from the brain of SD rats was homogenized; from tissue; host or cells: brain of SD rats (membrane pellet of homogenate)
Briefly: rat CB-1 receptor binding protocol with [3H]CP-55940.
Conditions: not given
T1 sequence (P20272 whole entry): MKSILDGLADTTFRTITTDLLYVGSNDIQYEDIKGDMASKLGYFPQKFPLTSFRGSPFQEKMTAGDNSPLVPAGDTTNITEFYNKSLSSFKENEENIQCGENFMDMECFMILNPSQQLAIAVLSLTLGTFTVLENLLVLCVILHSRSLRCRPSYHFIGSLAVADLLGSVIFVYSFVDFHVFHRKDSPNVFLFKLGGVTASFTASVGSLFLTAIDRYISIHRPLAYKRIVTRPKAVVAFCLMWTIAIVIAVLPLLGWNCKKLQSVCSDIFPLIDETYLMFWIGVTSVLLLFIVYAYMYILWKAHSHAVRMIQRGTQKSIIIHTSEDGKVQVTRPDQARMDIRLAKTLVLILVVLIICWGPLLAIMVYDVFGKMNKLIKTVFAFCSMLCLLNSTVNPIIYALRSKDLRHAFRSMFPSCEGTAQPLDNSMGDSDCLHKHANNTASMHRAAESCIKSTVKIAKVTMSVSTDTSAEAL
What is called IC50 is the concentration needed to halve the response being measured. `CC(C)c1c(-c2nnc(C(C)(C)C)o2)nc(-c2ccc(Cl)cc2Cl)n1-c1ccc(Br)cc1` [Example 25, 2-(1-(4-Bromophenyl)-2-(2,4-dichlorophenyl)-5-isopropyl-1H-imidazol-4-yl)-5-tert-butyl-1,3,4-oxadiazole] returned an IC50 of 21.2 nM.
In the case of `Cc1c(-c2nnc(C3CCCC3)o2)nc(-c2ccc(Cl)cc2Cl)n1-c1ccc(Cl)cc1` [Example 3, 2-(1-(4-Chlorophenyl)-2-(2,4-dichlorophenyl)-5-methyl-1H-imidazol-4-yl)-5-cyclopentyl-1,3,4-oxadiazole], the IC50 was determined as 35.3 nM.
As for `FC(F)(F)C1(c2nnc(-c3nc(-c4ccc(Cl)cc4Cl)n(-c4ccc(Br)cc4)c3Cn3cncn3)o2)CCC1` [Example 76, 2-(5-((1H-1,2,4-Triazol-1-yl)methyl)-1-(4-bromophenyl)-2-(2,4-dichlorophenyl)-1H-imidazol-4-yl)-5-(1-(trifluoromethyl)cyclobutyl)-1,3,4-oxadiazole], the IC50 is 3.95 nM.
`CCc1c(-c2nnc(C3(c4ccc(Cl)cc4Cl)CC3)o2)nc(-c2ccc(Cl)cc2Cl)n1-c1ccc(Br)cc1` [Example 44, 2-(1-(4-Bromophenyl)-2-(2,4-dichlorophenyl)-5-ethyl-1H-imidazol-4-yl)-5-(1-(2,4-dichlorophenyl)cyclopropyl)-1,3,4-oxadiazole] returned an IC50 of 8.05 nM.

Staying with this experiment, now noted: [3H]CP-55940, brain tissue of SD rats, 30 °C for 60 min; read-out: IC50.
With `CCc1c(-c2nnc(C3(c4ccc(Cl)cc4Cl)CC3)s2)nc(-c2ccc(Cl)cc2Cl)n1-c1ccc(Br)cc1` [Example 134, 2-(1-(4-Bromophenyl)-2-(2,4-dichlorophenyl)-5-ethyl-1H-imidazol-4-yl)-5-(1-(2,4-dichlorophenyl)cyclopropyl)-1,3,4-thiadiazole], the IC50 stood at 6.57 nM.
Turning to `Cc1c(-c2nnc(C3CCC3)s2)nc(-c2ccc(Cl)cc2Cl)n1-c1ccc(Cl)cc1` [Example 93, 2-(1-(4-Chlorophenyl)-2-(2,4-dichlorophenyl)-5-methyl-1H-imidazol-4-yl)-5-cyclobutyl-1,3,4-thiadiazole], the IC50 amounted to 42.3 nM.
Turning to `CCc1c(-c2nnc(C3CCCC3)o2)nc(-c2ccc(Cl)cc2Cl)n1-c1ccc(Cl)cc1` [Example 13, 2-(1-(4-Chlorophenyl)-2-(2,4-dichlorophenyl)-5-ethyl-1H-imidazol-4-yl)-5-cyclopentyl-1,3,4-oxadiazole], the IC50 came to 25.8 nM.
On to `CCc1c(-c2nc(C(C)(C)C)co2)nc(-c2ccc(Cl)cc2Cl)n1-c1ccc(Cl)cc1` [Example 190, 4-tert-Butyl-2-(1-(4-chlorophenyl)-2-(2,4-dichlorophenyl)-5-ethyl-1H-imidazol-4-yl)oxazole], for which the IC50 is 119 nM.
For the molecule `CCCc1c(-c2nnc(C(C)(C)C)s2)nc(-c2ccc(Cl)cc2Cl)n1-c1ccc(Br)cc1` [Example 119, 2-(1-(4-Bromophenyl)-2-(2,4-dichlorophenyl)-5-propyl-1H-imidazol-4-yl)-5-tert-butyl-1,3,4-thiadiazole], the IC50 was determined as 13.5 nM.
On to `CCCCc1cnc(-c2nc(-c3ccc(Cl)cc3Cl)n(-c3ccc(Cl)cc3)c2C)o1` [Example 182, 5-Butyl-2-(1-(4-chlorophenyl)-2-(2,4-dichlorophenyl)-5-methyl-1H-imidazol-4-yl)oxazole], for which the IC50 worked out at 11.6 nM.
With `Cc1c(-c2nnc(C3(C(F)(F)F)CC3)s2)nc(-c2ccccc2Cl)n1-c1ccc(Br)cc1` [Example 142, 2-(1-(4-Bromophenyl)-2-(2-chlorophenyl)-5-methyl-1H-imidazol-4-yl)-5-(1-(trifluoromethyl)cyclopropyl)-1,3,4-thiadiazole], the IC50 came to 12.3 nM.
Regarding `CC(C)(C)c1nnc(-c2nc(-c3ccc(Cl)cc3Cl)n(-c3ccc(Cl)cc3)c2C2CC2)o1` [Example 24, 2-tert-Butyl-5-(1-(4-chlorophenyl)-5-cyclopropyl-2-(2,4-dichlorophenyl)-1H-imidazol-4-yl)-1,3,4-oxadiazole], the IC50 was determined as 79.9 nM.
Same read-out and setting: under `CC(C)(C)c1nnc(-c2nc(-c3ccc(Cl)cc3Cl)n(-c3ccc(Cl)cc3)c2Cn2cncn2)o1` [Example 87, 2-(5-((1H-1,2,4-Triazol-1-yl)methyl)-1-(4-chlorophenyl)-2-(2,4-dichlorophenyl)-1H-imidazol-4-yl)-5-tert-butyl-1,3,4-oxadiazole] stands 12 nM; under `Cc1c(-c2nnc(C3(C(F)(F)F)CC3)s2)nc(-c2ccc(Cl)cc2Cl)n1-c1ccc(Br)cc1` [Example 136, 2-(1-(4-Bromophenyl)-2-(2,4-dichlorophenyl)-5-methyl-1H-imidazol-4-yl)-5-(1-(trifluoromethyl)cyclopropyl)-1,3,4-thiadiazole], 47.1 nM.
For `CC(C)c1c(-c2nnc(C3(c4ccccc4)CC3)s2)nc(-c2ccc(Cl)cc2Cl)n1-c1ccc(Cl)cc1` [Example 118, 2-(1-(4-Chlorophenyl)-2-(2,4-dichlorophenyl)-5-isopropyl-1H-imidazol-4-yl)-5-(1-phenylcyclopropyl)-1,3,4-thiadiazole], the IC50 was determined as 7.54 nM.
Turning to `CCc1c(-c2nnc(C(C)(C)C)o2)nc(-c2ccccc2Cl)n1-c1ccc(Br)cc1` [Example 55, 2-(1-(4-Bromophenyl)-2-(2-chlorophenyl)-5-ethyl-1H-imidazol-4-yl)-5-tert-butyl-1,3,4-oxadiazole], the IC50 was found to be 14.7 nM.
For the molecule `CCc1c(-c2nnc(C3CCCCC3)o2)nc(-c2ccc(Cl)cc2Cl)n1-c1ccc(Cl)cc1` [Example 12, 2-(1-(4-Chlorophenyl)-2-(2,4-dichlorophenyl)-5-ethyl-1H-imidazol-4-yl)-5-cyclohexyl-1,3,4-oxadiazole], the IC50 was determined as 48.4 nM.
`CC(C)(C)c1nnc(-c2nc(-c3ccc(Cl)cc3Cl)n(-c3ccc(Br)cc3)c2Cn2cncn2)o1` [Example 74, 2-(5-((1H-1,2,4-Triazol-1-yl)methyl)-1-(4-bromophenyl)-2-(2,4-dichlorophenyl)-1H-imidazol-4-yl)-5-tert-butyl-1,3,4-oxadiazole]: the IC50 worked out at 5.21 nM.
In the case of `Cc1c(-c2ncc(CC(C)C)o2)nc(-c2ccc(Cl)cc2Cl)n1-c1ccc(Cl)cc1` [Example 184, 2-(1-(4-Chlorophenyl)-2-(2,4-dichlorophenyl)-5-methyl-1H-imidazol-4-yl)-5-isobutyloxazole], the IC50 is 13.1 nM.
Consider `CCc1c(-c2nnc(C3(c4ccc(Cl)cc4)CC3)o2)nc(-c2ccccc2Cl)n1-c1ccc(Br)cc1` [Example 58, 2-(1-(4-Bromophenyl)-2-(2-chlorophenyl)-5-ethyl-1H-imidazol-4-yl)-5-(1-(4-chlorophenyl)cyclopropyl)-1,3,4-oxadiazole], for which the IC50 worked out at 10.3 nM.
Turning to `CCc1c(-c2nnc(C(C)(C)C)s2)nc(-c2ccc(Cl)cc2Cl)n1-c1ccc(Br)cc1` [Example 110, 2-(1-(4-Bromophenyl)-2-(2,4-dichlorophenyl)-5-ethyl-1H-imidazol-4-yl)-5-tert-butyl-1,3,4-thiadiazole], the IC50 came out at 1.91 nM.
Consider `FC(F)(F)C1(c2nnc(-c3nc(-c4ccccc4Cl)n(-c4ccc(Br)cc4)c3Cn3cncn3)o2)CC1` [Example 79, 2-(5-((1H-1,2,4-Triazol-1-yl)methyl)-1-(4-bromophenyl)-2-(2-chlorophenyl)-1H-imidazol-4-yl)-5-(1-(trifluoromethyl)cyclopropyl)-1,3,4-oxadiazole], for which the IC50 was 6.91 nM.
With `Clc1ccc(C2(c3nnc(-c4nc(-c5ccccc5Cl)n(-c5ccc(Br)cc5)c4Cn4cncn4)s3)CC2)cc1` [Example 171, 2-(5-((1H-1,2,4-Triazol-1-yl)methyl)-1-(4-bromophenyl)-2-(2-chlorophenyl)-1H-imidazol-4-yl)-5-(1-(4-chlorophenyl)cyclopropyl)-1,3,4-thiadiazole], the IC50 is 1.8 nM.
On to `CCc1c(-c2nnc(C3(c4ccc(Cl)cc4)CCCC3)s2)nc(-c2ccc(Cl)cc2Cl)n1-c1ccc(Br)cc1` [Example 135, 2-(1-(4-Bromophenyl)-2-(2,4-dichlorophenyl)-5-ethyl-1H-imidazol-4-yl)-5-(1-(4-chlorophenyl)cyclopentyl)-1,3,4-thiadiazole], for which the IC50 amounted to 1.87 nM.
Turning to `CC(C)(C)c1nnc(-c2nc(-c3ccccc3Cl)n(-c3ccc(Br)cc3)c2Cn2cncn2)o1` [Example 78, 2-(5-((1H-1,2,4-Triazol-1-yl)methyl)-1-(4-bromophenyl)-2-(2-chlorophenyl)-1H-imidazol-4-yl)-5-tert-butyl-1,3,4-oxadiazole], the IC50 worked out at 10.3 nM.
For `CCc1c(-c2nnc(C(C)CC)o2)nc(-c2ccc(Cl)cc2Cl)n1-c1ccc(Cl)cc1` (stereo not drawn) [Example 18, 2-sec-Butyl-5-(1-(4-chlorophenyl)-2-(2,4-dichlorophenyl)-5-ethyl-1H-imidazol-4-yl)-1,3,4-oxadiazole], the IC50 was found to be 17.9 nM.
As for `CCCc1c(-c2nnc(C3(c4ccc(Cl)cc4)CC3)o2)nc(-c2ccc(Cl)cc2Cl)n1-c1ccc(Br)cc1` [Example 33, 2-(1-(4-Bromophenyl)-2-(2,4-dichlorophenyl)-5-propyl-1H-imidazol-4-yl)-5-(1-(4-chlorophenyl)cyclopropyl)-1,3,4-oxadiazole], the IC50 amounted to 19.2 nM.
On to `FC(F)(F)C1(c2nnc(-c3nc(-c4ccccc4Cl)n(-c4ccc(Br)cc4)c3Cn3cncn3)o2)CCC1` [Example 80, 2-(5-((1H-1,2,4-Triazol-1-yl)methyl)-1-(4-bromophenyl)-2-(2-chlorophenyl)-1H-imidazol-4-yl)-5-(1-(trifluoromethyl)cyclobutyl)-1,3,4-oxadiazole], for which the IC50 stood at 3.36 nM.
For the molecule `Cc1c(-c2nnc(C(C)(C)C)s2)nc(-c2ccccc2Cl)n1-c1ccc(Br)cc1` [Example 141, 2-(1-(4-Bromophenyl)-2-(2-chlorophenyl)-5-methyl-1H-imidazol-4-yl)-5-tert-butyl-1,3,4-thiadiazole], the IC50 came to 10.7 nM.
`Clc1ccc(-n2c(-c3ccc(Cl)cc3Cl)nc(-c3nnc(C4(c5ccc(Cl)cc5)CC4)o3)c2Cn2cncn2)cc1` [Example 88, 2-(5-((1H-1,2,4-Triazol-1-yl)methyl)-1-(4-chlorophenyl)-2-(2,4-dichlorophenyl)-1H-imidazol-4-yl)-5-(1-(4-chlorophenyl)cyclopropyl)-1,3,4-oxadiazole]: the IC50 came out at 1.53 nM.

These data come from US20080207705A1, “Heteroaryl-Imidazole Derivatives as Cannabinoid CB1 Receptor Antagonists” (Green Cross Corporation, priority 2007, published 2008).
